Measurements as given in US11434222B2, “MAGL inhibitors” (H. LUNDBECK A/S, priority 2020, dated 2022).
Read-outs that look alike come from different tables or passages of the source.

How the values were obtained:
MAGL = target: T1, MAGL (Mus musculus, UniProt O35678); test: In vivo MAGL inhibition in mouse brain proteomes after oral gavage; conditions: 5 mg/kg oral gavage, 4 h after administration, read-out: MAGL % inh. 5 mg/kg (mouse)
T1 construct: brain proteomes were prepared and analyzed according to previously established methods; from tissue; host or cells: brain of wild-type C57Bl/6J mice
T1 sequence (O35678 1-303): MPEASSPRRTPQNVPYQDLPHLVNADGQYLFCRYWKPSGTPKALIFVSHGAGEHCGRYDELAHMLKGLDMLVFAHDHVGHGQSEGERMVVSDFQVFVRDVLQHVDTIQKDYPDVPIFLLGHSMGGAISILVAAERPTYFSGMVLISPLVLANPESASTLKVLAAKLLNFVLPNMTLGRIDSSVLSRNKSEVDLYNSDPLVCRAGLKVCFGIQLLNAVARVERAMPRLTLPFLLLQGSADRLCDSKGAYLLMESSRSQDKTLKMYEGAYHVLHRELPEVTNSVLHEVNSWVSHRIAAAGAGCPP
Experimental: Inhibitors were administered to wild-type C57B1/6J by oral gavage in a vehicle of polyethylene glycol. Each animal was sacrificed 4 h following administration and brain proteomes were prepared and analyzed according to previously established methods (See Niphakis, M. J., et al. (2011) ACS Chem. Neurosci. and Long, J. Z., et al. Nat. Chem. Biol. 5:37-44).

[1] = tested on: kainic acid induced seizures; test: Kainic acid seizure model in the rat; format: in vivo; conditions: for anticonvulsant effects in the kainic acid seizure test: rat; for magnitude of the effects in the kainic acid seizure test compared with reference: middle-high doses, reference Diazepam 16 mg/kg p.o.
Experimental: Kainic acid is an analog of the excitatory neurotransmitter, glutamate and acts as an agonist of kainic acid receptors. After systemic injection, kainic acid induces prolonged excitatory responses with many of the features of human temporal lobe epilepsy.
Rats, placed in individual Plexiglas cages (33×21×18 cm), are injected with kainic acid (20 mg/kg i.p.). The occurrences of the following symptoms are noted over a 120-minute period 30 minutes after kainic acid injection: forelimb clonus, rearings and rearings with falling, clonic convulsions, tonic convulsions and death. The presence of each symptom and the latencies to the first appearance of the symptoms are measured. The number of forelimb clonus is counted.
12 rats are studied per group. The test is performed partially blind.
The test substances will be evaluated at multiple doses, administered p.o. 240 minutes before the test, and compared with the corresponding vehicle control group (Group 2, administered with 10% HP-b-CD in distilled water, p.o. 240 minutes before the test).
Example 6 was evaluated at 0.3, 1, 3 and 10 mg/kg, and Example 8 was evaluated at 1, 3 and 10 mg/kg, administered p.o. 4 hours before the test, and compared with a vehicle control group (administered with 10% HP-b-CD, p.o. 4 hours before the test).
Diazepam (16 mg/kg) used as reference substance, was administered p.o. 60 minutes before the test (0.5% HP-b-CD) and was compared with vehicle controls.
Quantitative data (latencies) with the test substance was analyzed by comparing treated groups with vehicle control using Kruskal-Wallis test followed by Mann-Whitney U test. Quantitative data with the reference substance will be analysed using Mann-Whitney U test.
Quantal data (frequencies) were analyzed by comparing treated groups with vehicle control using Fisher's Exact Probability tests.

[2] = In vitro human hepatocyte stability; format: in vitro ADME; conditions: cryopreserved human hepatocytes (pooled donor), human hepatocytes 0.5×10^6 cells/mL, read-out: Scaled-up unbound CLint
Experimental: The metabolic stability of test articles (1 μM) in commercially sourced, pooled donor, cryopreserved human hepatocytes (0.5×10^6 cells/mL) was determined in duplicate. The CLint reactions (250 μL) were initiated by addition of test compound. Aliquots (25 μL) were taken at 0, 15, 30, 45, 60, 90, 120 and 240 minutes and then protein crashed with ice-cold acetonitrile containing internal standard then centrifuged (3220 g for 25 minutes). Supernatant was used for LC-MS/MS analysis. The in vitro half-life (in vitro t1/2) was determined from the slope value: in vitro t1/2=−0.693/k. Conversion of the in vitro t1/2 (in min) into the scale-up unbound intrinsic clearance (Scaled-up unbound CLint, in mL/min/kg) was done using the following equation (mean of duplicate determinations), with data shown in Table 5: Scaled-up unbound CLint=kV/N×scaling factor. V=incubation volume (0.25 mL); N=number of hepatocytes per well ([…]). Scaling factors for in vivo intrinsic clearance prediction are listed below: […]

[3] = Thermodynamic solubility in PBS; format: physicochemical; conditions: aqueous buffer, thermodynamic from solid; PBS pH 7.4; 24 hours at RT
Experimental: The thermodynamic solubility of test article was determined in PBS at pH 7.4 in duplicate. The test article (1.5 mg) in PBS was incubated for 24 hours at RT with shaking at 1100 rpm. Sample was then filtered using a vacuum manifold, diluted, and analyzed by LC-MS/MS. Chromatographic conditions: Phenomenex Synergi 4μ Hydro-PR 80A column (2.0×30 mm) coupled with pre-guard column; mobile phase=0.1% formic acid in acetonitrile and 0.1% formic acid in water; flowrate=0.65 mL/min; column temperature=40 degrees C.; injection volume: 10 μL.
Mobile phase: 0.1% formic acid in acetonitrile (A) and 0.1% formic acid in water (B)
Mass conditions: Turbo spray ion source; ESI ionization model; MRM scan type; Collison gas=6 L/min; Curtain gas=30 L/min; Nebulize gas=50 L/min; Auxiliary gas=50 L/min; Temperature=500 degrees C.; Ion spray voltage=+5500 v (positive MRM).
The filtered solution was analyzed and quantified against a standard of known concentration in DMSO using UPLC coupled with mass spectral peak identification and quantitation. Solubility values of the test articles were calculated using Microsoft Excel as follows (DF is the dilution factor): […]

[4] = Kinetic solubility in PBS; format: physicochemical; conditions: aqueous buffer, kinetic from dmso stock
Method in brief: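 Solubility measured in PBS at pH 2.0 and pH 7.4, in duplicate, starting from 10 mM DMSO stock; shaken 2 h at RT at 1,100 RPM. Filtrate diluted and quantified by LC-MS/MS (positive MRM) against a DMSO standard of known concentration.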

[5] = PBS pH 2.0, RT, read-out: pH 2 Solubility (kinetic)
[6] = PBS pH 7.4, RT, read-out: pH 7.4 Solubility (kinetic)

SMILES | inhibition at 5 mg/kg (MAGL) [%] | anticonvulsant effects in the kainic acid seizure test ([1]; dose-range 0.3-10 mg/kg p.o. 4 hours before the test) | magnitude of the effects in the kainic acid seizure test compared with reference [1] | CLint scaled at 1 μM [2] [mL/min/kg] | solubility thermodynamic at 24 h [3] [µg/mL] | solubility kinetic at 2 h [4, 5] [µM] | solubility kinetic at 2 h [4, 6] [µM] | anticonvulsant effects in the kainic acid seizure test ([1]; dose-range 1-10 mg/kg p.o. 4 hours before the test)
O=C(Nc1cccnn1)[C@H]1CC12CCN(C(=O)OC(C(F)(F)F)C(F)(F)F)CC2 [Example 6, 1,1,1,3,3,3-hexafluoropropan-2-yl (S)-1-(pyridazin-3-ylcarbamoyl)-6-azaspiro[2.5]octane-6-carboxylate] | 100 | clear anticonvulsant effects | close to those observed with the reference substance, Diazepam | 5.79 | 71.5 | 240 | 106 | –
O=C(NC1CCOCC1)[C@H]1CC12CCN(C(=O)OC(C(F)(F)F)C(F)(F)F)CC2 [Example 8, 1,1,1,3,3,3-hexafluoropropan-2-yl (S)-1-[(oxan-4-yl)carbamoyl]-6-azaspiro[2.5]octane-6-carboxylate] | 100 | – | close to those observed with the reference substance, Diazepam | 7.75 | 606 | 308 | 256 | clear anticonvulsant effects
